Laboratory results: paper PMC3026800, “Mechanism of Inhibition of Enveloped Virus Membrane Fusion by the Antiviral Drug Arbidol” (PLoS ONE, 2011)
“And” between values parts separate entries of the source, which are not always exact repeats. Equal entries are not always repeated. Where two headings read alike, the source gives them in different places.

How the values were obtained:
[1] = target: Trp residues of model membrane-binding peptides (HCV NS4A and BVDV NS5A); test: Trp fluorescence quenching, model membrane peptides taken together; details: HCV NS4A and BVDV NS5A peptides in PC∶chol liposomes, both pH, summary; read-out: Apparent KD toward peptide Trp
Procedure: (§1) Measurements were recorded on a Tecan Infinite® M1000 spectrofluorimeter.

[2] = cited from earlier work
HCVpp [3] = test: Membrane fusion assay: lipid mixing between pseudoparticles and R18-labeled liposomes; details: pH 5.0
Procedure: Lipid mixing between pseudoparticles and PC∶chol∶R18 liposomes was monitored by fluorescent spectroscopy, as the dequenching of R18 [18]. In brief, R18-labeled liposomes (1 µl, 12.5 µM final lipid concentration) were added to a 37°C-thermostated cuvette containing pseudoparticles in PBS pH 7.4 [viral titers: H77 (1a) 5.10e^5; W529A-HC 10e^2; Con1 (1b) 4.10e^4; JFH1 (2a) 5.10e^4; AY734983 (2b) 8.10e^4; AY734984 (3a) 3.10e^4; AY734987 (4a) 9.10e^4; AY785283 (5a) 3.10e^4; AY736194 (6a) 5.10e^3; HA 8.10e^8; Rd114 2.10e^6], and incubated 2 min. Fusion was initiated by acidification to pH 5 with HCl, and recorded on an SLM Aminco 8000 spectrofluorimeter over a 10-min time period, at excitation and emission wavelengths of 560 nm and 590 nm, respectively. Maximal R18 dequenching was measured after the addition of 0.1% Triton X-100 (final concentration) to the cuvette to lyse liposomes.

[4] = tested on: Rd114pp (envelope glycoprotein of the RD114 feline oncovirus); format: cell-based; details: 11.3 µM arbidol; control pseudoparticles
[5] = Indole fluorescence quenching of tryptophan derivative in solution; format: binding; details: NATA in solution
Procedure: as §1

[6] = Surface plasmon resonance binding to immobilized DMPC liposomes (L1 chip)
Procedure: The running buffer was milliQ water. The influence of liposome concentrations on the final SPR signal was tested; we assayed lipid concentrations from 0.5 to 5 mM and measured the resulting resonance units (RU). […] We therefore chose the 2 mM concentration for our experiments. DMPC liposomes were resuspended in milliQ water and captured on sensor chip at 2 µl/min for 5 min. The flow rate was increased to 30 µl/min and the liposome surface was then washed with 10 mM NaOH for 1 min. Liposomes immobilized on the chip surface gave approx. a 5000 RU signal. […] After each binding cycle, the sensor surface was regenerated to the original matrix by injecting 50 mM NaOH/isopropanol (6∶4, v∶v). The sensor surface was then coated with a fresh liposome suspension for the next binding cycle. KD values were calculated from the equilibrium resonance signal (Req) as a function of the analyte concentration. Req values were estimated by extrapolation to infinite time using plots of resonance signal as a function of the reciprocal of time. Apparent KD were then calculated by nonlinear fitting to the expression Req = RmaxC/(KD+C), where Rmax is the maximum binding capacity of the surface and C is the analyte concentration, using the SigmaPlot software.

[7] = Free Arb in Arb∶DMPC mixture by ultrafiltration; format: physicochemical; details: Arb∶DMPC molar ratio 1∶4, neutral pH, ultrafiltration cutoff 5000 Da
HCVpp [8] = test: microbe, parasite or virus in culture; format: cell-based, hepatitis C virus; details: for inhibition at 11.3 µM: Hepatitis C virus, Huh-7, 6 h, read-out: Inhibition of HCVpp cell entry; for Effect on HCVpp cell entry: 11.3 µM Arb, 6 h, Huh-7 cells
E2[606–625] peptide = E2[606–625] peptide (Hepatitis C virus genotype 1a, UniProt P27958); test: Trp fluorescence quenching of fusion-related peptide in PC:chol liposomes; format: binding, HCV strain H (genotype 1a); details: peptide in PC∶chol liposomes (1∶20)
Procedure: as §1

E2[415–432] peptide = E2[415–432] peptide (Hepatitis C virus genotype 1a, UniProt P27958); test: as above; format: binding, HCV strain H (genotype 1a); details: peptide in PC∶chol liposomes (1∶20)
Procedure: as §1

[9] = target: T1, HCV NS4A[1–22]* transmembrane peptide (Hepatitis C virus genotype 1a, UniProt P27958); test: Trp fluorescence quenching of peptide in PC:chol liposomes; format: binding; details: peptide in PC∶chol liposomes (1∶20)
T1 construct: HCV NS4A[1–22]* transmembrane peptide […]
Procedure: as §1

[10] = Indole fluorescence quenching of tryptophan derivative in micelles or liposomes; format: binding
Procedure: as §1

Solubility of Arb = format: physicochemical

SMILES: CCOC(=O)c1c(CSc2ccccc2)n(C)c2cc(Br)c(O)c(CN(C)C)c12.Cl [Arb, 1H-indole-3-carboxylic acid, 6-bromo-4-[(dimethylamino)-methyl]-5-hydroxy-1-methyl-2-[(phenylthio)methyl]-, ethyl ester, monohydrochloride]
- Kd [1]: ~4 µM
- Toxicity [2]: low toxicity
- Inhibition of membrane fusion activity (HCVpp [3]; all tested genotypes, 11.3 µM Arb): about 50%
- IC50 (HCVpp [3]; read-out: IC50 of HCVpp fusion, lipid mixing with R18 liposomes): 11.3 µM and ~10 µM
- Sensitivity of pseudoparticle entry to arbidol [4]: insensitive
- Kd ([5]; pH 5.0): 55 ± 10 µM
- Kd ([5]; pH 7.4): 64 ± 10 µM
- Arb remaining bound to DMPC after dissociation ([6]; all Arb concentrations tested (0.5 to 11.3 µM)): about 50%
- Kd ([6]; read-out: Apparent KD for DMPC, SPR, 30°C, water, Req extrapolated to infinite time, 4 separate experiments): 6.8 ± 0.4 µM
- Free Arb [7]: < 0.2%
- inhibition at 11.3 µM (HCVpp [8]; genotype 1a): 40%
- inhibition at 11.3 µM (HCVpp [8]; genotype 1b): 40%
- inhibition at 11.3 µM (HCVpp [8]; genotype 2a): ~60%
- inhibition at 11.3 µM (HCVpp [8]; genotype 2b): 40%
- inhibition at 11.3 µM (HCVpp [8]; genotype 3a): ~60%
- Effect on HCVpp cell entry (HCVpp [8]; genotype 5a): weakly affected
- Effect on HCVpp cell entry (HCVpp [8]; genotype 6a): weakly affected
- Kd (E2[606–625] peptide; pH 5.0): 70 ± 10 µM
- Kd (E2[606–625] peptide; pH 7.4): 13 ± 3 µM
- Kd (E2[415–432] peptide; pH 5.0): 28 ± 7 µM
- Kd (E2[415–432] peptide; pH 7.4): ~15 µM and 15 µM
- Kd ([9]; pH 5.0): 5.6 ± 0.3 µM
- Kd ([9]; pH 7.4): 3.3 ± 0.6 µM
- Kd ([10]; TOE associated to liposomes (1∶20), summary, read-out: KD (apparent affinity)): ~10 µM
- Kd ([10]; TOE in PC liposomes (1∶20), pH 5.0, read-out: KD): 9.2 ± 0.2 µM
- Kd ([10]; TOE in PC liposomes (1∶20), pH 7.4, read-out: KD): 6 ± 0.5 µM
- Kd ([10]; TOE in PC∶chol liposomes (1∶20), pH 5.0, read-out: KD): 15.6 ± 1.3 µM
- Kd ([10]; TOE in PC∶chol liposomes (1∶20), pH 7.4, read-out: KD): 11.7 ± 1.4 µM
- Kd ([10]; TOE in lyso-PC micelles (1∶800), pH 5.0, read-out: KD): 48 ± 4 µM
- Kd ([10]; TOE in lyso-PC micelles (1∶800), pH 7.4, read-out: KD): 58 ± 9 µM
- Solubility (Solubility of Arb; ethanol): readily soluble
- Solubility (Solubility of Arb; water): soluble in the mM range
